Test system: OCI-AML2 xenografts
Test: OCI-AML2 xenograft efficacy (tumor volume, body weight)
Settings: for Tumor Volume Day 14, Mean / Tumor Volume Day 14, Median / % T/C (mean), Tumor Volume Day 14 / % T/C (median), Tumor Volume Day 14: Day 14 (measure date = dosing begin); for Tumor Volume Day 14, Mean / Tumor Volume Day 18, Mean / Tumor Volume Day 21, Mean: group mean of 8 mice; for Tumor Volume Day 14, Median / Tumor Volume Day 18, Median / Tumor Volume Day 21, Median: group median of 8 mice; for % T/C (mean), Tumor Volume Day 14 / % T/C (median), Tumor Volume Day 14 / % T/C (mean), Tumor Volume Day 18 / % T/C (median), Tumor Volume Day 18 / % T/C (mean), Tumor Volume Day 21 / % T/C (median), Tumor Volume Day 21: control Group 01; for % T/C (mean), Tumor Volume Day 25: mean(T)/mean(C) vs Group 01 (0 mg/kg); for % T/C (median), Tumor Volume Day 25: median(T)/median(C) vs Group 01 (0 mg/kg); for % Mortality: OCI-AML-2 (DSMZ) xenograft, SCID-beige mouse, F
[1] = ABBV-467 […] Q7Dx3 IV, Venetoclax 25 mg/kg QDx14 PO, 5-Aza 8 mg/kg Q7Dx3 IV
[2] = Venetoclax 25 mg/kg QDx14 PO, 5-Aza 8 mg/kg Q7Dx3 IV
[3] = group mean, n=8, ABBV-467 […] Q7Dx3 IV, Venetoclax 25 mg/kg QDx14 PO, 5-Aza 8 mg/kg Q7Dx3 IV
[4] = group median, n=8, ABBV-467 […] Q7Dx3 IV, Venetoclax 25 mg/kg QDx14 PO, 5-Aza 8 mg/kg Q7Dx3 IV

Method: All animal studies were conducted in accordance with the guidelines approved by the Institutional Animal Care and Use Committees of AbbVie. The research protocol was approved by In Vivo Pharmacology at AbbVie prior to study initiation but was not publicly registered or disclosed. Female C.B-17 SCID-beige mice (AMO-1, OPM-2, NCI-H929, and OCI-AML2 xenografts) and female NSG mice (MV4-11-Red.Fluc systemic) were purchased from Charles River Laboratories (Wilmington, MA). Animals were housed in a light cycle-controlled room with HEPA filtration at 22 °C. Animals had nesting and climbing cage topper as the primary environmental enrichment. Animals were inoculated subcutaneously in the right flank with 5 × 10^6 (AMO-1, OPM-2, NCI-H929, and OCI-AML2) or intravenous (IV) with 5 × 10^6 (MV4-11-Red.Fluc). The inoculation volume (0.2 mL) comprised a 50:50 mixture of cells in growth media and Matrigel (BD Biosciences) for subcutaneous injections and 100% phosphate-buffered saline for IV administration. […] Electronic calipers were used to measure the length and width of each tumor 2 to 3 times per week. Tumor volume was estimated by applying the following equation: volume = length × width^2/2. All groups remained blinded during measurements and dosing; only veterinary staff were aware of group identity. When tumors reached approximately 200 mm^3, mice were randomized by match and distributed into treatment and control groups. All xenograft trials were conducted using 5 to 10 mice per group, and all mice were ear tagged and monitored individually throughout the studies.
For combination studies, all compounds were administered within 30 min of each other.
The tumor growth delay (TGD) percentage was determined as the percentage increase of the median time period for the treatment group to reach an arbitrary tumor volume of 1000 mm^3 relative to the vehicle control group. […] A power analysis was conducted using historical data to determine the number of animals required to yield significance of 0.05 at a 30% difference. There were no animals excluded. Data from experiments in vivo were analyzed using the student’s t-test for TGI values and the Mann–Whitney U test for TGD using Excel and GraphPad Prism. Fisher’s exact test was used to probe significance of differences in response frequency.

SMILES	Tumor Volume Day 14, Mean [1]	Tumor Volume Day 14, Median [1]	% T/C (mean), Tumor Volume Day 14 [1]	% T/C (median), Tumor Volume Day 14 [1]	Tumor Volume Day 18, Mean [1]	Tumor Volume Day 18, Median [1]	% T/C (mean), Tumor Volume Day 18 [1]	% T/C (median), Tumor Volume Day 18 [1]	Tumor Volume Day 21, Mean [1]	Tumor Volume Day 21, Median [1]	% T/C (mean), Tumor Volume Day 21 [1]	% T/C (median), Tumor Volume Day 21 [1]	Mortality Observation Day 25 (individual animals) [2]	Tumor Volume (mm³) Day 25, Mean [3]	Tumor Volume (mm³) Day 25, Median [4]	% T/C (mean), Tumor Volume Day 25 [1]	% T/C (median), Tumor Volume Day 25 [1]	further results
Nc1ncn([C@@H]2O[C@H](CO)[C@@H](O)[C@H]2O)c(=O)n1 [5-azacitidine, reference compound]	–	–	–	–	–	–	–	–	–	–	–	–	–	–	–	–	–	effect on OCI-AML2 xenograft growth (venetoclax 25 mg/kg QD × 14, azacitidine 8 mg/kg Q7D × 3, or the combination of both): no meaningful effect
Nc1ncn([C@@H]2O[C@H](CO)[C@@H](O)[C@H]2O)c(=O)n1 [A-37426.0 (5-Aza)]	204.71 mm³	196.98 mm³	99.83%	103.17%	420.77 mm³	428.51 mm³	80.49%	74.19%	806.97 mm³	777.56 mm³	88.35%	78.44%	EUTV	1474.66 mm³	1414.73 mm³	76.12%	72.28%	% Mortality (Group 04, 8 mg/kg IV Q7Dx3): 100.00%
CC1(C)CCC(CN2CCN(c3ccc(C(=O)NS(=O)(=O)c4ccc(NCC5CCOCC5)c([N+](=O)[O-])c4)c(Oc4cnc5[nH]ccc5c4)c3)CC2)=C(c2ccc(Cl)cc2)C1 [A-1195425.0 (Venetoclax)]	204.64 mm³	193.77 mm³	99.79%	101.49%	437.16 mm³	415.67 mm³	83.63%	71.96%	934.07 mm³	1005.20 mm³	102.27%	101.40%	EUTV	1624.63 mm³	1781.81 mm³	83.87%	91.03%	% Mortality (Group 03, 25 mg/kg PO QDx14): 100.00%
Cc1c(Cl)c2c(Cl)c(C)c1-c1c(-c3ccc(F)cc3)sc3ncnc(c13)O[C@@H](C(=O)O)Cc1cc(ccc1OCc1ccnc(-c3ccc(OC[C@H]4COCCO4)cc3)n1)OC[C@@H](CN1CCN(C)CC1)O2 [A-1747745.0 (ABBV-467, MCL-1i)]	205.07 mm³	194.10 mm³	100.01%	101.66%	319.69 mm³	302.00 mm³	61.16%	52.29%	701.23 mm³	681.22 mm³	76.77%	68.72%	–	978.87 mm³	1025.66 mm³	50.53%	52.40%	Mortality Observation Day 28 (individual animals) (Day 28, ABBV-467 […] Q7Dx3 IV, Venetoclax 25 mg/kg QDx14 PO, 5-Aza 8 mg/kg Q7Dx3 IV): EUTV; Tumor Volume (mm³) Day 28, Mean (Day 28, group mean, n=8, ABBV-467 […] Q7Dx3 IV, Venetoclax 25 mg/kg QDx14 PO, 5-Aza 8 mg/kg Q7Dx3 IV): 1642.98 mm³; Tumor Volume (mm³) Day 28, Median (Day 28, group median, n=8, ABBV-467 […] Q7Dx3 IV, Venetoclax 25 mg/kg QDx14 PO, 5-Aza 8 mg/kg Q7Dx3 IV): 1495.57 mm³
